Measurements taken from PubChem BioAssay AID256 (DTP/NCI, 2004).
Several values for one entry are separate records, joined by “and”; a condition that tells them apart may be missing. Identical values can stand only once. Toxic doses and inconclusive results are not listed.

System: CD2F1 mice, L1210 leukemia ip, survival T/C
Assay: NCI In Vivo Anticancer Drug Screen. Data for tumor model L1210 Leukemia (intraperitoneal) in CD2F1 (CDF1) mice
Conditions: higher = longer survival
Method in brief: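 Vehicle-treated tumor-bearing mice served as controls (C) for compound-treated mice (T). Reported figure is T divided by C.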

[1] = endpoint: mean survival time, dose: 50.0 mg/kg/injection, schedule: Q01DX009 (ip), vehicle: saline
[2] = endpoint: mean survival time, dose: 100.0 mg/kg/injection, schedule: Q01DX009 (ip), vehicle: saline
[3] = endpoint: mean survival time, dose: 100.0 mg/kg/injection, schedule: Q01DX009 (ip), vehicle: saline with Tween-80
[4] = endpoint: mean survival time, dose: 200.0 mg/kg/injection, schedule: Q01DX009 (ip), vehicle: saline with Tween-80
[5] = endpoint: mean survival time, dose: 200.0 mg/kg/injection, schedule: Q01DX009 (ip), vehicle: saline
[6] = endpoint: mean survival time, dose: 400.0 mg/kg/injection, schedule: Q01DX009 (ip), vehicle: saline with Tween-80
[7] = endpoint: mean survival time, dose: 100.0 mg/kg/injection, schedule: Q04DX002 (ip), vehicle: saline with Tween-80
[8] = endpoint: mean survival time, dose: 200.0 mg/kg/injection, schedule: Q04DX002 (ip), vehicle: saline with Tween-80
[9] = endpoint: mean survival time, dose: 100.0 mg/kg/injection, schedule: Q01DX001 (ip), vehicle: saline
[10] = endpoint: mean survival time, dose: 200.0 mg/kg/injection, schedule: Q01DX001 (ip), vehicle: saline
[11] = endpoint: mean survival time, dose: 400.0 mg/kg/injection, schedule: Q01DX001 (ip), vehicle: saline
[12] = endpoint: mean survival time, dose: 6.25 mg/kg/injection, schedule: Q04DX003 (ip), vehicle: distilled water + Tween-80
[13] = endpoint: mean survival time, dose: 12.5 mg/kg/injection, schedule: Q04DX003 (ip), vehicle: distilled water + Tween-80
[14] = endpoint: mean survival time, dose: 25.0 mg/kg/injection, schedule: Q04DX003 (ip), vehicle: distilled water + Tween-80
[15] = endpoint: mean survival time, dose: 50.0 mg/kg/injection, schedule: Q04DX003 (ip), vehicle: distilled water + Tween-80
[16] = endpoint: mean survival time, dose: 100.0 mg/kg/injection, schedule: Q04DX003 (ip), vehicle: saline with Tween-80
[17] = endpoint: mean survival time, dose: 200.0 mg/kg/injection, schedule: Q04DX003 (ip), vehicle: saline with Tween-80
[18] = endpoint: mean survival time, dose: 400.0 mg/kg/injection, schedule: Q04DX003 (ip), vehicle: saline with Tween-80

O=S(=O)(O)c1ccc(-c2ccc(S(=O)(=O)O)cc2)cc1 (tested in a mixture with another compound)
T/C (endpoint: mean survival time, dose: 6.3 mg/kg/injection, schedule: Q01DX009 (ip), vehicle: saline): 95 % of control
T/C (endpoint: mean survival time, dose: 6.3 mg/kg/injection, schedule: Q04DX003 (ip), vehicle: saline): 121 % of control and 108 % of control
T/C (endpoint: mean survival time, dose: 12.0 mg/kg/injection, schedule: Q01DX001 (ip), vehicle: saline): 118 % of control
T/C (endpoint: mean survival time, dose: 12.5 mg/kg/injection, schedule: Q01DX001 (ip), vehicle: saline): 117 % of control and 123 % of control
T/C (endpoint: mean survival time, dose: 12.5 mg/kg/injection, schedule: Q01DX009 (ip), vehicle: saline): 150 % of control
T/C (endpoint: mean survival time, dose: 12.5 mg/kg/injection, schedule: Q04DX003 (ip), vehicle: saline): 122 % of control
T/C (endpoint: mean survival time, dose: 25.0 mg/kg/injection, schedule: Q01DX009 (ip), vehicle: saline): 162 % of control and 172 % of control and 180 % of control
T/C (endpoint: mean survival time, dose: 50.0 mg/kg/injection, schedule: Q01DX001 (ip), vehicle: saline): 150 % of control
T/C [1]: 115 % of control and 205 % of control and 342 % of control
T/C (endpoint: mean survival time, dose: 50.0 mg/kg/injection, schedule: Q04DX003 (ip), vehicle: saline): 160 % of control and 190 % of control and 205 % of control
T/C (endpoint: mean survival time, dose: 75.0 mg/kg/injection, schedule: Q04DX003 (ip), vehicle: saline): 195 % of control
T/C [2]: 100 % of control and 102 % of control
T/C (endpoint: mean survival time, dose: 100.0 mg/kg/injection, schedule: Q04DX003 (ip), vehicle: saline): 248 % of control and 275 % of control and 489 % of control
T/C (endpoint: mean survival time, dose: 150.0 mg/kg/injection, schedule: Q04DX003 (ip), vehicle: saline): 217 % of control
T/C (endpoint: mean survival time, dose: 200.0 mg/kg/injection, schedule: Q04DX003 (ip), vehicle: saline): 120 % of control

NC1CCCCC1N.O=S(=O)([O-])c1ccccc1S(=O)(=O)[O-].[Pt+4]
T/C (endpoint: median survival time, dose: 1.56 mg/kg/injection, schedule: Q04DX003 (ip), vehicle: saline): 105 % of control
T/C (endpoint: median survival time, dose: 6.25 mg/kg/injection, schedule: Q04DX003 (ip), vehicle: saline): 212 % of control and 216 % of control
T/C (endpoint: median survival time, dose: 12.5 mg/kg/injection, schedule: Q04DX003 (ip), vehicle: saline): 212 % of control and 361 % of control
T/C (endpoint: median survival time, dose: 25.0 mg/kg/injection, schedule: Q04DX003 (ip), vehicle: saline): 244 % of control and 375 % of control
T/C (endpoint: median survival time, dose: 50.0 mg/kg/injection, schedule: Q04DX003 (ip), vehicle: saline): 180 % of control

Nc1c(Cl)c(Cl)nc(C(=O)O)c1Cl
T/C (endpoint: mean survival time, dose: 25.0 mg/kg/injection, schedule: Q01DX009 (ip), vehicle: Klucel (hydroxypropylcellulose) (HPC)): 98 % of control
T/C (endpoint: mean survival time, dose: 25.0 mg/kg/injection, schedule: Q01DX009 (ip), vehicle: saline with Tween-80): 100 % of control
T/C (endpoint: mean survival time, dose: 50.0 mg/kg/injection, schedule: Q01DX009 (ip), vehicle: Klucel (hydroxypropylcellulose) (HPC)): 98 % of control
T/C (endpoint: mean survival time, dose: 50.0 mg/kg/injection, schedule: Q01DX009 (ip), vehicle: saline with Tween-80): 94 % of control
T/C [1]: 97 % of control
T/C (endpoint: mean survival time, dose: 100.0 mg/kg/injection, schedule: Q01DX009 (ip), vehicle: Klucel (hydroxypropylcellulose) (HPC)): 90 % of control
T/C [3]: 97 % of control
T/C [2]: 97 % of control
T/C (endpoint: mean survival time, dose: 200.0 mg/kg/injection, schedule: Q01DX009 (ip), vehicle: Klucel (hydroxypropylcellulose) (HPC)): 100 % of control
T/C [4]: 97 % of control
T/C [5]: 101 % of control
T/C [6]: 101 % of control

CC1C=CC(=O)O1 (centres undefined)
T/C (endpoint: mean survival time, dose: 50.0 mg/kg/injection, schedule: Q04DX002 (ip), vehicle: saline with Tween-80): 100 % of control
T/C [7]: 103 % of control

CC(=O)C(c1ccccc1)N(C)C(=O)c1ccccc1 (centres undefined)
T/C [2]: 95 % of control
T/C [5]: 94 % of control
T/C (endpoint: mean survival time, dose: 400.0 mg/kg/injection, schedule: Q01DX009 (ip), vehicle: saline): 104 % of control

COc1cc(C2=N/C(=C\c3ccc(C(C)C)cc3)C(=O)O2)cc(OC)c1OC
T/C [7]: 90 % of control
T/C [8]: 90 % of control
T/C (endpoint: mean survival time, dose: 400.0 mg/kg/injection, schedule: Q04DX002 (ip), vehicle: saline with Tween-80): 94 % of control

C/C=C(/CCCCC)C(=O)OCC
T/C [3]: 106 % of control
T/C [4]: 100 % of control
T/C [6]: 101 % of control

CN(C)C(=O)Sc1ccc(S(=O)(=O)F)cc1F
T/C [7]: 91 % of control
T/C [8]: 91 % of control

O=C(SC1=NCCN1)c1ccccc1
T/C [9]: 94 % of control
T/C [10]: 102 % of control

CC(=O)NC(C)NC(C)=O
T/C [9]: 103 % of control
T/C [10]: 103 % of control
T/C [11]: 103 % of control

Cc1ccc([NH-])cc1C.Cc1ccc([NH-])cc1C.[Cl][Pt+2][Cl]
T/C (endpoint: mean survival time, dose: 3.12 mg/kg/injection, schedule: Q04DX003 (ip), vehicle: distilled water + Tween-80): 103 % of control
T/C [12]: 103 % of control
T/C [13]: 108 % of control
T/C [14]: 106 % of control
T/C [15]: 108 % of control

CCOC(=O)C(CCCCC(NC(C)=O)(C(=O)OCC)C(=O)OCC)(NC(C)=O)C(=O)OCC
T/C [16]: 98 % of control
T/C [17]: 92 % of control
T/C [18]: 92 % of control

Cc1ncc(CO)c(/C=N/NC(N)=S)c1O
T/C [9]: 101 % of control
T/C [10]: 100 % of control
T/C [11]: 101 % of control

CCC(Cc1ccccc1)C1=NC(C)(C)CC(C)O1 (centres undefined)
T/C (endpoint: mean survival time, dose: 100.0 mg/kg/injection, schedule: Q01DX001 (ip), vehicle: saline with Tween-80): 97 % of control
T/C (endpoint: mean survival time, dose: 200.0 mg/kg/injection, schedule: Q01DX001 (ip), vehicle: saline with Tween-80): 89 % of control

O=C(CC(=O)c1ccccc1)c1ccccc1.O=C(CC(=O)c1ccccc1)c1ccccc1.[Pd]
T/C (endpoint: mean survival time, dose: 3.13 mg/kg/injection, schedule: Q04DX003 (ip), vehicle: distilled water + Tween-80): 96 % of control
T/C [12]: 98 % of control
T/C [13]: 94 % of control
T/C [14]: 98 % of control
T/C [15]: 93 % of control
T/C (endpoint: mean survival time, dose: 100.0 mg/kg/injection, schedule: Q04DX003 (ip), vehicle: distilled water + Tween-80): 89 % of control
T/C (endpoint: mean survival time, dose: 200.0 mg/kg/injection, schedule: Q04DX003 (ip), vehicle: distilled water + Tween-80): 107 % of control

CC1CCc2c(ccc3ccccc23)C1=O (centres undefined)
T/C [3]: 97 % of control
T/C [16]: 97 % of control
T/C [4]: 95 % of control
T/C [17]: 97 % of control
T/C [6]: 97 % of control
T/C [18]: 94 % of control

CN(C)CC(=O)Nc1cc(Cl)ccc1Oc1ccc(Cl)cc1
T/C [3]: 103 % of control
T/C [4]: 100 % of control
T/C [6]: 105 % of control

CC[C@@H](C)[C@@H]1NC(=O)C(NC(=O)C(CC(C)C)N(C)C(=O)C2CCCN2C(=O)C(C)O)C(C)OC(=O)C(Cc2ccc(OC)cc2)N(C)C(=O)C2CCCN2C(=O)C(CC(C)C)NC(=O)C(C)C(=O)C(C(C)C)OC(=O)C[C@H]1O (some centres undefined)
T/C (endpoint: median survival time, dose: 10.0 micrograms/kg/injection, schedule: Q01DX009 (ip), vehicle: distilled water + alcohol): 104 % of control
T/C (endpoint: median survival time, dose: 25.0 micrograms/kg/injection, schedule: Q01DX009 (ip), vehicle: distilled water + alcohol): 111 % of control
T/C (endpoint: median survival time, dose: 40.0 micrograms/kg/injection, schedule: Q01DX009 (ip), vehicle: distilled water + alcohol): 104 % of control
T/C (endpoint: median survival time, dose: 50.0 micrograms/kg/injection, schedule: Q01DX009 (ip), vehicle: distilled water + alcohol): 111 % of control
T/C (endpoint: median survival time, dose: 80.0 micrograms/kg/injection, schedule: Q01DX009 (ip), vehicle: distilled water + alcohol): 112 % of control
T/C (endpoint: median survival time, dose: 100.0 micrograms/kg/injection, schedule: Q01DX009 (ip), vehicle: distilled water + alcohol): 121 % of control
T/C (endpoint: median survival time, dose: 160.0 micrograms/kg/injection, schedule: Q01DX009 (ip), vehicle: distilled water + alcohol): 112 % of control

CCCCCCCCCCCCCC(CCCC)CCCCCCCC (centres undefined)
T/C (endpoint: mean survival time, dose: 100.0 mg/kg/injection, schedule: Q01DX001 (ip), vehicle: saline sonified): 107 % of control
T/C (endpoint: mean survival time, dose: 200.0 mg/kg/injection, schedule: Q01DX001 (ip), vehicle: saline sonified): 95 % of control
T/C (endpoint: mean survival time, dose: 400.0 mg/kg/injection, schedule: Q01DX001 (ip), vehicle: saline sonified): 102 % of control
